Test results: patent US8642834B2, “Methods for the identification of agents that inhibit mesenchymal-like tumor cells or their formation” (OSI Pharmaceuticals, LLC, priority 2009, dated 2014)
No end group written: not given here.

Experiments:
CFPAC-1 cells [1] = test: Inhibition of ligand-induced EMT by JAK or MEK inhibitor; assay type: cell-based, human; conditions: JAK inhibitor 0.25 μM
Procedure: Supernatents were micro-centrifuged at max speed, 4° C. for 10 minutes. […] SDS PAGE was run using a Bis-Tris gel system (Invitrogen NuPAGE) with MOPS buffer (Invitrogen NP0001), transferred onto nitrocellulose using the iBLOT system (Invitrogen) and blocked in PBS-T (0.1% Tween 20), 5% non-fat milk or BSA in guidance with primary Ab supplier requirements. […] Secondary HRP labeled antibodies used were: anti Rabbit IgG HRP (Amersham NA934) 1:5000 dilution; anti Mouse IgG HRP (Sigma A2304) 1:2000 dilution. Membranes were visualized using the Supersignal ELISA Femto Maximum Sensitivity Substrate (Pierce).

[2] = tested on: advanced, treatment-refractory NSCLC; conditions: phase III, monotherapy, patients with advanced; cited from earlier work
pancreatic cancer = conditions: phase III, first-line, in combination with gemcitabine; cited from earlier work
CFPAC-1 cells [3] = test: Induction of EMT by growth factors and cytokines, E-cadherin and vimentin immunoblotting; assay type: cell-based, human; conditions: CFPAC-1 cells treated 7 days with ligand
Procedure: The CFPAC1 cell line was cultured in DMEM media (Gibco #11960) supplemented with 10% FBS (Sigma), 2 mM L Glutamine (Gibco), at 37° C., 5% CO2. For 7 day treatments, cells were seeded on tissue culture plastic in complete growth media and allowed to attach overnight at cell densities that would provide approximately 60-80% confluence at end of experiment. Ligand and/or inhibitor was added the following day (Day 0) in complete growth media and incubated at 37° C., 5% CO2. Ligand source and concentrations used are as follows: [1] From R&D systems, SDF-1α (stromal derived factor-1 alpha) at 100 ng/ml, TRANCE (TNF-related activation induced cytokine) at 50 ng/ml, FGF1 (fibroblast growth factor acidic) at 10 ng/ml, FGF2 (fibroblast growth factor basic) at 10 ng/ml, BMP4 (bone morphogenetic protein 4) at 100 ng/ml, BMP7 (bone morphogenetic protein 7) at 100 ng/ml, IGF2 (insulin-like growth factor 2) at 100 ng/ml, OSM (Oncostatin M) at 100 ng/ml, NRG1 (Neuregulin-1) at 50 ng/ml, PDGFaa (Platelet derived growth factor a) at 50 ng/ml, PDGFbb (platelet derive growth factor b) at 30 ng/ml, Ang2 (Angiopoeitin 2) at 400 ng/ml, amphiregulin at 100 ng/ml, HMGB 1 (Human high-mobility group box 1 protein) at 50 ng/ml; [2] From Genscript, LIF (Leukemia inhibitory factor) at 20 ng/ml, GM-CSF (Granulocyte macrophage colony stimulating factor) at 25 ng/ml, M-CSF (Macrophage colony stimulating factor) at 50 ng/ml; [3] From Anaspec, PAR1 (Protease activated receptor 1 agonist) at 100 μM; PAR2 (Protease activated receptor 2 agonist; peptide SLIGKV-NH2, Cat. No. 60217-1) at 100 μM; PAR4 (Protease activated receptor […] agonist; peptide AYPGKF-NH2, Cat. No. 60218-1) at 100 μM; [4] From Peprotech, HGF (Hepatocyte Growth Factor) at 100 ng/ml; IL-31 (Interleukin-31) at 50 ng/ml, IL-33 (Interleukin-33) at 50 ng/ml, IL1-a (Interleukin-1 alpha) at 10 ng/ml, CTGF (Connective tissue growth factor) at 20 ng/ml, WISP1 (Wnt-1 inducible signaling pathway protein) at 20 ng/ml, PTHrP ([…] hormone-related protein) at 50 ng/ml, MCP1 (monocyte chemotactic protein-1) at 50 ng/ml; and [5] from Sigma, Fulvestrant at 1 μM. Fresh medium containing ligand and/or inhibitor was added 3-4 days after initial dose, and at Day 7 cells were harvested for western blot analysis.
Cells were harvested by washing once with PBS, and lysing on ice for 10 minutes with scraping (using a Cell Lifter, Corning Inc. #3008) in ice cold RIPA buffer (Sigma R0278) containing Protease inhibitor (Sigma P8340), Phosphatase inhibitors (Sigma P2850, P5726) and 200 μM Sodium Vanadate. Supernatents were micro-centrifuged at max speed, 4° C. for 10 minutes. Protein content was quantitated using the BCA method (Pierce #23225) and samples were normalized to total protein in Laemli buffer and heated at 100° C. for 10 minutes. SDS PAGE was run using a Bis-Tris gel system (Invitrogen NuPAGE) with MOPS buffer (Invitrogen NP0001), transferred onto nitrocellulose using the iBLOT system (Invitrogen) and blocked in PBS-T (0.1% Tween 20), 5% non-fat milk or BSA in guidance with primary Ab supplier requirements. All primary antibodies were incubated overnight at 4° C. in PBS-T (0.1% Tween 20) in either 5% non-fat milk or BSA, diluted to the following working dilutions: anti E Cadherin (Santa Cruz #sc-21791) 1:500 dilution; anti Vimentin (BD Biosciences #550513) 1:2000 dilution;); anti GAPDH HRP conjugate (Santa Cruz sc-25778) 1:1000 dilution; anti β-Actin (Sigma, A5441) 1:10,000 dilution. […]

| Molecule | Induction of EMT (E-cadherin down, vimentin up) (CFPAC-1 cells [3]) | other results |
| --- | --- | --- |
| CC(C)(C)c1nc2c3cc[nH]c(=O)c3c3cc(F)ccc3c2[nH]1 [JAK inhibitor] |  | Block of morphology change (CFPAC-1 cells [1]; CFPAC-1 cells treated with OSM 7 days, light microscopy): blocked the morphology change; Block of EMT process (CFPAC-1 cells [1]; OSM-triggered EMT, 7 days, MEK inhibitor 3 μM): could block EMT process |
| C#Cc1cccc(Nc2ncnc3cc(OCCOC)c(OCCOC)cc23)c1 [erlotinib, [6,7-bis(2-methoxyethoxy)-4-quinazolin-4-yl]-(3-ethynylphenyl) amine] |  | Survival, disease progression, lung cancer-related symptoms [2]: significantly prolonged survival, delayed disease progression and delayed worsening of lung cancer-related symptoms; Survival (pancreatic cancer): improves survival |
| AYPGKF-NH2 [PAR4 agonist AYPGKF-NH2, reference compound] | Partial EMT |  |
| IGF2: insulin-like growth factor 2, R&D systems, 100 ng/ml | Partial EMT |  |
| LIF: Leukemia inhibitory factor, Genscript, 20 ng/ml | Partial EMT |  |
| SLIGKV-NH2 (UniProt P55085 37-42, looked up, fragment) [PAR2 agonist SLIGKV-NH2, reference compound] | Partial EMT |  |
